Where two headings read alike, the source gives them in different places. One block for each compound: values may come before it.
Experiments:
[1] = system: Ca Ski PIK3CA-mutated cervical cancer cell line; experiment: CTG cell proliferation, Ca Ski; format: cell-based; details: 72 hours, read-out: Absolute IC50
From the text: (§1) (2) Reagents • 1) FBS (fetal bovine serum) (purchased from ExCell, product number: FND500); • 2) RPMI1640 medium (purchased from Hyclone, product number: SH30809.01); • 3) McCoy's 5A medium (purchased from Gibco, product number: 12330-031); • 4) MEM medium (purchased from Hyclone, product number: SH30024.01; • 5) MEM NEAA (purchased from Gibco, product number: 11140-050); • 6) Sodium pyruvate (purchased from Gibco). (3) Test Article and Positive Control Article • Test article: compound I; Positive Control Article: • 1) Alpelisib, molecular weight: 441.47; solvent: DMSO; storage condition after dissolution: −20° C.; supplier: Shanghai TOPSCIENCE Biochemical Technology Co., Ltd., CAS number: 1217486-61-7; • 2) Cisplatin, molecular weight: 300.05; solvent: PBS (phosphate buffer saline); storage condition: 2-8° C.; supplier: Qilu Pharmaceutical. (4) The CTG Method was Used to Determine the Cell Proliferation IC50 of the Compound
(§2) Step 1: Cells in exponential growth phase were harvested, and viable cells were counted with a Vi-Cell XR cytometer. The cell suspension was adjusted to an appropriate concentration with medium. 90 μL of cell suspension was added to each well of a 96-well cell culture plate, and the final cell concentration was 1500-6000 cells/well. […]
(§3) Step 3: After 72 hours of drug treatment, 50 μL (½ culture volume) CTG solution that was melted and equilibrated to room temperature was added to each well according to the CTG operation instruction. […] After 10 minutes, the fluorescence signal value was measured with an Envision2104 plate reader.
(§4) Cell survival rate was calculated using the formula: Vsample/Vvehicle control×100%. Where, Vsample was the reading of the drug treatment group, and Vvehicle control was the average value of the solvent control group. GraphPad Prism 5.0 software was used, and a S-type dosage-survival rate curve was drawn using a nonlinear regression model and IC50 value was calculated.

[2] = system: HEC-1-B PIK3CA-mutated endometrial cancer cell line; experiment: CTG cell proliferation, HEC-1-B; format: cell-based; details: read-out: Absolute IC50
Method: (§5) (2) Reagents • 1) FBS (fetal bovine serum) (purchased from ExCell, product number: FND500); • 2) McCoy's 5A medium (purchased from Gibco, product number: 12330-031); • 3) MEM medium (purchased from Hyclone, product number: SH30024.01). (3) Test Article and Positive Control Article • Test article: compound I; • Positive control article: Alpelisib, molecular weight: 441.47; solvent: DMSO; storage condition after dissolution: −20° C.; supplier: Shanghai TOPSCIENCE Biochemical Technology Co., Ltd., CAS number: 1217486-61-7; (4) The CTG Method was Used to Determine the Cell Proliferation IC50 of the Compound
(§6) Step 1: Cells in exponential growth phase were harvested, and viable cells were counted with a Vi-Cell XR cytometer. The cell suspension was adjusted to an appropriate concentration with medium. 90 μL of cell suspension was added to each well of a 96-well cell culture plate, and the final cell concentration was 1500-6000 cells/well.
Step 2: The initial concentration of administration of compound I and the control drug Alpelisib was 3 μM, serially diluted 3-fold, a total of 9 concentration gradients and a DMSO control, the final concentration of DMSO in each well was 0.1%, placed in a 37° C., 5% CO2 incubator for 72 hours.
(§7) Step 3: After 72 hours of drug treatment, 50 μL (½ culture volume) CTG solution that was melted and equilibrated to room temperature was added to each well according to the CTG operation instruction. The solution was mixed well with a microplate shaker for 2 minutes, and placed at room temperature. After 10 minutes, the fluorescence signal value was measured with an Envision2104 plate reader.
as §4

[3] = system: PIK3CA-mutated cervical cancer cells; experiment: CTG cell proliferation, cervical cancer cell lines; format: cell-based; details: across PIK3CA-mutated cervical cancer cell lines, 72 hours, Alpelisib: in two cell lines, read-out: half inhibitory concentration
From the text: (2) Reagents • 1) FBS (fetal bovine serum) (purchased from ExCell, product number: FND500); • 2) RPMI1640 medium (purchased from Hyclone, product number: SH30809.01); • 3) McCoy's 5A medium (purchased from Gibco, product number: 12330-031); • 4) MEM medium (purchased from Hyclone, product number: SH30024.01; • 5) MEM NEAA (purchased from Gibco, product number: 11140-050); • 6) Sodium pyruvate (purchased from Gibco). […]
(§8) Step 1: Cells in exponential growth phase were harvested, and viable cells were counted with a Vi-Cell XR cytometer. […]
as §3, §4

[4] = system: C-33A PIK3CA-mutated cervical cancer cell line; experiment: CTG cell proliferation, C-33A; format: cell-based; details: 72 hours, read-out: Absolute IC50
From the text: as §1, §2, §3, §4

[5] = system: ME-180 PIK3CA-mutated cervical cancer cell line; experiment: CTG cell proliferation, ME-180; format: cell-based; details: ME-180, CTG, 72 hours, read-out: Absolute IC50
From the text: as §1, §2, §3, §4

[6] = system: HEC-1-A PIK3CA-mutated endometrial cancer cell line; experiment: CTG cell proliferation, HEC-1-A; format: cell-based; details: read-out: Absolute IC50
Method: as §5, §8, §3, §4

[7] = system: BT-474 PIK3CA-mutated breast cancer cell line; experiment: CTG cell proliferation, BT-474; format: cell-based, human; details: BT-474, CTG, 72 hours; read-out: Absolute IC50
From the text: (§9) (2) Reagents • 1) FBS (fetal bovine serum) (purchased from ExCell, product number: FND500); • 2) DMEM medium (purchased from Gibco, product number: C11995500BT); • 3) Insulin (purchased from Gibco, product number: EPX010-12003-901); • 4) RPMI1640 medium (purchased from Hyclone, product number: SH30809.01); • 5) MEM medium (purchased from Hyclone, product number: SH30024.01). (3) Test Article and Positive Control Article • Test article: compound I; • Positive control article: Cisplatin, Molecular weight: 300.05; Solvent: PBS (phosphate buffer saline); Storage condition: 2-8° C.; Supplier: Qilu Pharmaceutical. (4) The CTG Method was Used to Determine the Cell Proliferation IC50 of the Compound.
as §6
(§10) Step 2: The initial concentration of administration of compound I was 3 μM, and the initial concentration of administration of the control drug Cisplatin was 100 μM, and serially diluted 3-fold, a total of 9 concentration gradients and a DMSO control, the final concentration of DMSO in each well was 0.1%, placed in a 37° C., 5% CO2 incubator for 72 hours.
as §3, §4

[8] = system: J82 PIK3CA-mutated bladder cancer cell line; experiment: CTG cell proliferation, J82; format: cell-based; details: 72 hours, read-out: Absolute IC50
From the text: (§11) (2) Reagents • 1) FBS (fetal bovine serum) (purchased from ExCell, product number: FND500); • 2) MEM medium (purchased from Hyclone, product number: SH30024.01; • 3) MEM NEAA (purchased from Gibco, product number: 11140-050); • 4) Sodium pyruvate (purchased from Gibco). […] (4) The CTG Method was Used to Determine the Cell Proliferation IC50 of the Compound
as §6, §7
(§12) Cell survival rate was calculated using the formula: Vsample/Vvehicle control×100%. Where, Vsample was the reading of the drug treatment group, and Vvehicle control was the average value of the solvent control group.

[9] = system: T47D PIK3CA-mutated breast cancer cell line; experiment: CTG cell proliferation, T47D; format: cell-based; details: 72 hours, read-out: Absolute IC50
From the text: as §9, §6, §10, §3, §4

[10] = system: TCCSUP PIK3CA-mutated bladder cancer cell line; experiment: CTG cell proliferation, TCCSUP; format: cell-based; details: 72 hours, read-out: Absolute IC50
From the text: as §11, §6, §7, §12

[11] = system: human breast cancer BT-474 subcutaneous xenograft tumor; experiment: In vivo efficacy, BT-474 subcutaneous xenograft tumor model; design: species or system BALB/c nude mice; details: for Tumor volume (Day 20): Mean ± SEM; for T/C / TGI: day 20
Method: Experimental purpose: Study the in vivo efficacy of the test drug on human breast cancer BT-474 subcutaneous xenograft tumor BALB/c nude mouse model.
(1) Cell culture: human breast cancer BT-474 cells were monolayer cultured in vitro. The culture conditions were that 10% fetal bovine serum, 100 U/ml penicillin (purchased from Gibco) and 100 μg/ml chain Mycin (purchased from Gibco) were added to Hybri-Care medium, and cultured at 37° C. and 5% CO2. Routine digestion and passage were performed with trypsin-EDTA (purchased from Gibco, product number: 25200-072) twice a week. When the cell saturation was 80%-90%, the cells are harvested, counted and inoculated.
(2) Animals: BALB/c nude mice, female, 6 weeks old, weighing 16-18 grams. Provided by Shanghai Sippe-Bk Lab Animal Co., Ltd.
(3) Control article: • Both PF05212384 and Everolimus were purchased from Shanghai TOPSCIENCE Biochemical Technology Co., Ltd.
(4) Tumor inoculation: 0.2 ml (1×10^7) BT-474 cells (matrigel was added, volume 1:1) were subcutaneously inoculated on the right back of each mouse, and the mice were divided into groups and administered with drugs when the average tumor volume reached 122 mm^3. See Table 10 below for the experimental grouping and dosing regimen.

[12] = 5 mg/kg, oral, once a day for 20 days, vs Solvent 2
[13] = 20 mg/kg, vein, once a week for 3 weeks, vs Solvent 1

IC50 ([1]; Homo sapiens): > 3000 nM
IC50 ([2]; 72 hours): 2410 nM
IC50 ([2]; Homo sapiens, HEC-1B, 72 h): > 2000 nM
IC50 [3]: > 3000 nM
IC50 ([4]; Homo sapiens): > 3000 nM
IC50 ([5]; Homo sapiens): 2070 nM
IC50 ([6]; 72 hours): 2460 nM
IC50 ([6]; Homo sapiens, 72 h): > 2000 nM
SMILES: Cc1nc(NC(=O)N2CCC[C@H]2C(N)=O)sc1-c1ccnc(C(C)(C)C(F)(F)F)c1 [Alpelisib]

SMILES: N.N.[Cl][Pt][Cl] [Cisplatin]
IC50 [1]: 16200 nM
IC50 [7]: > 100000 nM
IC50 [4]: 3560 nM
IC50 [5]: 2830 nM
IC50 [8]: 1730 nM
IC50 [9]: 36600 nM
IC50 [10]: 3770 nM

SMILES: CO[C@H]1C[C@@H]2CC[C@@H](C)[C@@](O)(O2)C(=O)C(=O)N2CCCC[C@H]2C(=O)O[C@H]([C@H](C)C[C@@H]2CC[C@@H](OCCO)[C@H](OC)C2)CC(=O)[C@H](C)/C=C(\C)[C@@H](O)[C@@H](OC)C(=O)[C@H](C)C[C@H](C)/C=C/C=C/C=C/1C [Everolimus, reference compound]
Tumor volume (Day 20) ([11]; 5 mg/kg, oral, once a day for 20 days): 82 ± 17 mm^3
T/C [11, 12]: 19%
TGI [11, 12]: 113%

SMILES: CN(C)C1CCN(C(=O)c2ccc(NC(=O)Nc3ccc(-c4nc(N5CCOCC5)nc(N5CCOCC5)n4)cc3)cc2)CC1 [PF05212384, reference compound]
Tumor volume (Day 20) ([11]; 20 mg/kg, vein, once a week for 3 weeks): 49 ± 6 mm^3
T/C [11, 13]: 15%
TGI [11, 13]: 134%

— US12622912B2, “Application of pyrido[1,2-a]pyrimidinone analog” (GUANGZHOU JOYO PHARMATECH CO., LTD, priority 2021, dated 2026)
